From ChEMBL document CHEMBL5226369, “Tetracyclic Steroids Bearing a Bicyclo[4.4.1] Ring System as Potent Antiosteoporosis Agents from the Deep-Sea-Derived Fungus Rhizopus sp. W23” (J Nat Prod, 2023)
Blank lines part the entries; values can stand above or below the molecule they belong to. Activity calls are given as the source filed them. The calls are words filed in the database; no cut-off is given here.

Legend:
HCT-116 = test: Antiproliferative activity against human HCT-116 cells by MTT assay; assay type: functional, cell-based
A-431 = test: Antiproliferative activity against human A-431 cells by MTT assay; assay type: functional, cell-based
[1] = Inhibition of adipogenic differentiation in C57BL/6J mouse BMSC cells at 20 uM measured after 6 days by Oil Red O staining based light microscopy; assay type: functional; details: 144 h, time 6 day
[2] = Antiproliferative activity against human SKGT4 cells by MTT assay; assay type: functional, cell-based
BGC-823 = test: Antiproliferative activity against human BGC-823 cells by MTT assay; assay type: functional, cell-based
BMSC [3] = test: Anti-osteoporosis activity against C57BL/6J mouse BMSC cells assessed as increase in matrix mineralization of osteoblasts at 20 uM incubated for 14 days by Alizarin Red S staining based analysis; assay type: functional, cell-based; details: time 14.0 day
KYSE-450 = test: Antiproliferative activity against human KYSE-450 cells by MTT assay; assay type: functional, cell-based
[4] = Antiproliferative activity against human QGY-7701 cells by MTT assay; assay type: functional, cell-based; details: QGY7701
HepG2 = test: Antiproliferative activity against human HepG2 cells by MTT assay; assay type: functional, cell-based
PANC-1 = test: Antiproliferative activity against human PANC-1 cells by MTT assay; assay type: functional, cell-based
NCI-H460 = test: Antiproliferative activity against human NCI-H460 cells by MTT assay; assay type: functional, cell-based
PC-3 = test: Antiproliferative activity against human PC-3 cells by MTT assay; assay type: functional, cell-based
A-375 = test: Antiproliferative activity against human A-375 cells by MTT assay; assay type: functional, cell-based
A549 = test: Antiproliferative activity against human A549 cells by MTT assay; assay type: functional, cell-based
HL-60 = test: Antiproliferative activity against human HL-60 cells by MTT assay; assay type: functional, cell-based
MDA-MB-231 = test: Antiproliferative activity against human MDA-MB-231 cells by MTT assay; assay type: functional, cell-based
K562 = test: Antiproliferative activity against human K562 cells by MTT assay; assay type: functional, cell-based
MCF7 = test: Antiproliferative activity against human MCF7 cells by MTT assay; assay type: functional, cell-based
U2OS = test: Antiproliferative activity against human U2OS cells by MTT assay; assay type: functional, cell-based
NCI-H1299 = test: Antiproliferative activity against human NCI-H1299 cells by MTT assay; assay type: functional, cell-based
BMSC [5] = test: (§1) Anti-osteoporosis activity against C57BL/6J mouse BMSC cells assessed as increase in osteogenic mineralization incubated for 14 days by Alizarin Red S staining based analysis; assay type: functional; details: time 14.0 day
[6] = as §1; assay type: functional; details: 336 h, time 14 day, read-out: MEC
Protein smoothened = Protein smoothened (Homo sapiens, UniProt Q99835); test: Agonist activity at SMO receptor (unknown origin)
Chain of Protein smoothened (Q99835 whole entry): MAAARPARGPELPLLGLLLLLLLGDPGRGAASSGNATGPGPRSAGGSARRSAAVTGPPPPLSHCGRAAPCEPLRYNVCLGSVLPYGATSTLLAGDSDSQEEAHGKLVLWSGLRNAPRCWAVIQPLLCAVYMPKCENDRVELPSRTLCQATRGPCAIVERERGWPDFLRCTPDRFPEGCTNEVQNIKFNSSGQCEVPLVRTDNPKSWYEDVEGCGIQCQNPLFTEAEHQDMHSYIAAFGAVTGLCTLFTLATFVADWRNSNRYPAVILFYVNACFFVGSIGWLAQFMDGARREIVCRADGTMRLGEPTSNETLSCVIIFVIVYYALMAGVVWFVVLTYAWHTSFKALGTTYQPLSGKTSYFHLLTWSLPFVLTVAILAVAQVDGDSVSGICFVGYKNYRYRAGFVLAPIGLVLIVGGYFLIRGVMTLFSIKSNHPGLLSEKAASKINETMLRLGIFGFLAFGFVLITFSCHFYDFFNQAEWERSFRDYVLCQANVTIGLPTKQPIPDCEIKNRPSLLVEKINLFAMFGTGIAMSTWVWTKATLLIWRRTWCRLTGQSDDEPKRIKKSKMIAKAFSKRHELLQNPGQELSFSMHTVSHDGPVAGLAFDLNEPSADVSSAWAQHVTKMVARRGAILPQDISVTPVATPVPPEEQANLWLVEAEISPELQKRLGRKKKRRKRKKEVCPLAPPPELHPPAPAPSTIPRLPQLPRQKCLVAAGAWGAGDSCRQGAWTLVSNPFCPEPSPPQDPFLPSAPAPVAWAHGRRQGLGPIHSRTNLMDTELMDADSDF

IC50 (HCT-116): > 20 µM | IC50 (A-431): > 20 µM | IC50 (BGC-823): > 20 µM | IC50 (HepG2): > 20 µM | IC50 (PANC-1): > 20 µM | IC50 (NCI-H460): > 20 µM | IC50 (PC-3): > 20 µM | IC50 (A-375): > 20 µM | IC50 (A549): > 20 µM | IC50 (HL-60): > 20 µM | IC50 (MDA-MB-231): > 20 µM | IC50 (K562): > 20 µM | IC50 (MCF7): > 20 µM | IC50 (U2OS): > 20 µM | IC50 (NCI-H1299): > 20 µM
Compound: C/C(=C/[C@H](O)[C@H](C)O)[C@H]1CC[C@H]2C3=CC(=O)[C@H]4CC(=CC[C@H](O)C4)[C@H]3CC[C@]12C
inhibition at 20 µM [1]: 65% | IC50 [2]: > 20 µM | Activity (BMSC [3]): Active | IC50 (KYSE-450): > 20 µM | IC50 [4]: > 20 µM | Activity (BMSC [5]): Dose-Dependent Effect | minimal effective concentration [6]: 20 µM

EC50 (Protein smoothened): 1 µM
Compound: c1ccc2c(Oc3nc(Nc4ccc(N5CCOCC5)cc4)c4ncn(C5CCCCC5)c4n3)cccc2c1 [PURMORPHAMINE]
